Laboratory results: ChEMBL document CHEMBL3885881, “DrugMatrix”

Species: Rattus norvegicus
Experiment: DrugMatrix - Regimen: Daily Repeat
Type: toxicity, organism-based, Sprague-Dawley
Design: regimen Daily Repeat, gender Male, age 6-8 weeks
Conditions: in vivo, route none, vehicle 100 % UNTREATED
[1] = 0 mg/kg, 120 h, tissue Blood, dose level Control, time 5 day
[2] = 0 mg/kg, 120 h, tissue Plasma, dose level Control, time 5 day
[3] = 0 mg/kg, […], tissue Blood, dose level Control, time 14 day
[4] = 0 mg/kg, […], tissue Plasma, dose level Control, time 14 day
[5] = 50 mg/kg, 120 h, tissue Blood, dose level Low, time 5 day
[6] = 50 mg/kg, 120 h, tissue Plasma, dose level Low, time 5 day
[7] = 50 mg/kg, […], tissue Blood, dose level Low, time 14 day
[8] = 50 mg/kg, […], tissue Plasma, dose level Low, time 14 day
[9] = 60 mg/kg, 120 h, tissue Blood, dose level M1, time 5 day

Diet_Restriction
ABSOLUTE BASOPHIL [1]: 0 CELLS/uL
ABSOLUTE EOSINOPHIL [1]: 42.67 CELLS/uL
ABSOLUTE LYMPHOCYTE [1]: 11593.33 CELLS/uL
ABSOLUTE MONOCYTE [1]: 174.33 CELLS/uL
ABSOLUTE SEGMENTED NEUTROPHIL [1]: 1356.33 CELLS/uL
BASOPHIL [1]: 0%
EOSINOPHIL [1]: 0.33%
ERYTHROCYTE COUNT [1]: 5.67 x10E6/uL
HEMATOCRIT [1]: 43.37%
HEMOGLOBIN [1]: 12.33 G/DL
LEUKOCYTE COUNT [1]: 13.17 x10E3/uL
LYMPHOCYTE [1]: 88%
MEAN CORPUSCULAR HEMOGLOBIN [1]: 21.77 pg
MEAN CORPUSCULAR HEMOGLOBIN CONCENTRATION [1]: 36.93 G/DL
MEAN CORPUSCULAR VOLUME [1]: 58.9 fL
NUCLEATED RED BLOOD CELLS [1]: 0 /100WBC
PLATELET COUNT [1]: 942.33 x10E3/uL
ALANINE AMINOTRANSFERASE [2]: 42.67 u/L
ALBUMIN [2]: 4.2 G/DL
ALKALINE PHOSPHATASE [2]: 336.33 u/L
ASPARTATE AMINOTRANSFERASE [2]: 74 u/L
BLOOD UREA NITROGEN [2]: 12.67 mg/dL
CARBON DIOXIDE [2]: 32.33 mmol/L
CHOLESTEROL [2]: 78.67 mg/dL
CREATINE PHOSPHOKINASE [2]: 847.33 u/L
CREATININE [2]: 0.22 mg/dL
LACTATE DEHYDROGENASE [2]: 139.67 u/L
POTASSIUM [2]: 6.74 MEQ/L
TOTAL BILIRUBIN [2]: 0.13 mg/dL
URIC ACID [2]: 1.3 mg/dL
ABSOLUTE BASOPHIL [3]: 0 CELLS/uL
ABSOLUTE EOSINOPHIL [3]: 46.33 CELLS/uL
ABSOLUTE LYMPHOCYTE [3]: 13977 CELLS/uL
ABSOLUTE MONOCYTE [3]: 264.67 CELLS/uL
ABSOLUTE SEGMENTED NEUTROPHIL [3]: 1445.33 CELLS/uL
BASOPHIL [3]: 0%
EOSINOPHIL [3]: 0.33%
ERYTHROCYTE COUNT [3]: 6.27 x10E6/uL
LEUKOCYTE COUNT [3]: 15.73 x10E3/uL
LYMPHOCYTE [3]: 89%
MEAN CORPUSCULAR HEMOGLOBIN [3]: 22.27 pg
MEAN CORPUSCULAR HEMOGLOBIN CONCENTRATION [3]: 37.13 G/DL
NEUTROPHIL [3]: 9%
NUCLEATED RED BLOOD CELLS [3]: 0 /100WBC
PLATELET COUNT [3]: 923 x10E3/uL
ALANINE AMINOTRANSFERASE [4]: 48.67 u/L
ALKALINE PHOSPHATASE [4]: 360 u/L
ASPARTATE AMINOTRANSFERASE [4]: 67 u/L
CARBON DIOXIDE [4]: 32 mmol/L
CHLORIDE [4]: 99 MEQ/L
CHOLESTEROL [4]: 92.67 mg/dL
CREATINE PHOSPHOKINASE [4]: 220.67 u/L
CREATININE [4]: 0.19 mg/dL
LACTATE DEHYDROGENASE [4]: 88.33 u/L
LIPASE [4]: 10 u/L
PHOSPHORUS [4]: 13.07 mg/dL
POTASSIUM [4]: 6.69 MEQ/L
TOTAL BILIRUBIN [4]: 0.17 mg/dL
TOTAL PROTEIN [4]: 6.33 G/DL
URIC ACID [4]: 1.9 mg/dL
ABSOLUTE BASOPHIL [5]: 0 CELLS/uL
ABSOLUTE EOSINOPHIL [5]: 0 CELLS/uL
ABSOLUTE LYMPHOCYTE [5]: 5557.67 CELLS/uL
ABSOLUTE MONOCYTE [5]: 33.33 CELLS/uL
ABSOLUTE SEGMENTED NEUTROPHIL [5]: 409 CELLS/uL
BASOPHIL [5]: 0%
EOSINOPHIL [5]: 0%
ERYTHROCYTE COUNT [5]: 6.2 x10E6/uL
HEMOGLOBIN [5]: 13.47 G/DL
LEUKOCYTE COUNT [5]: 6 x10E3/uL
LYMPHOCYTE [5]: 93%
MEAN CORPUSCULAR HEMOGLOBIN [5]: 21.73 pg
MEAN CORPUSCULAR HEMOGLOBIN CONCENTRATION [5]: 37.13 G/DL
MEAN CORPUSCULAR VOLUME [5]: 58.43 fL
MONOCYTE [5]: 0.67%
NEUTROPHIL [5]: 6.33%
NUCLEATED RED BLOOD CELLS [5]: 0 /100WBC
PLATELET COUNT [5]: 1004.67 x10E3/uL
ALBUMIN [6]: 4.4 G/DL
ALKALINE PHOSPHATASE [6]: 272.67 u/L
ASPARTATE AMINOTRANSFERASE [6]: 69 u/L
BLOOD UREA NITROGEN [6]: 10 mg/dL
CHOLESTEROL [6]: 67.33 mg/dL
CREATININE [6]: 0.15 mg/dL
GLUCOSE [6]: 121.33 mg/dL
LACTATE DEHYDROGENASE [6]: 95.33 u/L
LIPASE [6]: 10 u/L
PHOSPHORUS [6]: 10.03 mg/dL
POTASSIUM [6]: 6.08 MEQ/L
SODIUM [6]: 146.6 MEQ/L
TOTAL BILIRUBIN [6]: 0.13 mg/dL
TOTAL PROTEIN [6]: 6.27 G/DL
URIC ACID [6]: 1.13 mg/dL
ABSOLUTE BASOPHIL [7]: 0 CELLS/uL
ABSOLUTE EOSINOPHIL [7]: 34 CELLS/uL
ABSOLUTE LYMPHOCYTE [7]: 10004 CELLS/uL
ABSOLUTE MONOCYTE [7]: 145.67 CELLS/uL
ABSOLUTE SEGMENTED NEUTROPHIL [7]: 1049.67 CELLS/uL
BASOPHIL [7]: 0%
EOSINOPHIL [7]: 0.33%
ERYTHROCYTE COUNT [7]: 7.11 x10E6/uL
HEMATOCRIT [7]: 38.27%
LEUKOCYTE COUNT [7]: 11.23 x10E3/uL
LYMPHOCYTE [7]: 89.33%
MEAN CORPUSCULAR HEMOGLOBIN [7]: 19.8 pg
MEAN CORPUSCULAR HEMOGLOBIN CONCENTRATION [7]: 36.77 G/DL
MEAN CORPUSCULAR VOLUME [7]: 53.83 fL
NEUTROPHIL [7]: 9%
NUCLEATED RED BLOOD CELLS [7]: 0 /100WBC
PLATELET COUNT [7]: 891.33 x10E3/uL
ALANINE AMINOTRANSFERASE [8]: 40.33 u/L
ALBUMIN [8]: 4.2 G/DL
ALKALINE PHOSPHATASE [8]: 255.67 u/L
ASPARTATE AMINOTRANSFERASE [8]: 75 u/L
BLOOD UREA NITROGEN [8]: 15 mg/dL
CHOLESTEROL [8]: 62.33 mg/dL
CREATINE PHOSPHOKINASE [8]: 467.33 u/L
CREATININE [8]: 0.22 mg/dL
GLUCOSE [8]: 163.67 mg/dL
LACTATE DEHYDROGENASE [8]: 62.33 u/L
POTASSIUM [8]: 5.28 MEQ/L
TOTAL BILIRUBIN [8]: 0.1 mg/dL
TOTAL PROTEIN [8]: 6.1 G/DL
URIC ACID [8]: 1.5 mg/dL
ABSOLUTE BASOPHIL [9]: 0 CELLS/uL
ABSOLUTE EOSINOPHIL [9]: 49.33 CELLS/uL
ABSOLUTE LYMPHOCYTE [9]: 3766.67 CELLS/uL
ABSOLUTE MONOCYTE [9]: 29.33 CELLS/uL
ABSOLUTE SEGMENTED NEUTROPHIL [9]: 454.67 CELLS/uL
